From PMC10206524 (European journal of medicinal chemistry, 2022) come the findings set out here.

Common to all, as to format: biochemical
One experiment deals with T1, human SIRT5 (Homo sapiens, UniProt Q9NXA8).
T1 sequence (Q9NXA8 37-310): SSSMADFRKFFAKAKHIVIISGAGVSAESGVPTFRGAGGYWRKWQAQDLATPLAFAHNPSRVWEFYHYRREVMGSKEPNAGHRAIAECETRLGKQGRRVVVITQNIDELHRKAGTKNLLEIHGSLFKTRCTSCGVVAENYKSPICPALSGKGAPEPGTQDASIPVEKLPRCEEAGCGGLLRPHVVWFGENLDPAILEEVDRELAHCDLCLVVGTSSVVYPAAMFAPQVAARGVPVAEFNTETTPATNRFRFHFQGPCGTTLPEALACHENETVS
Kind of experiment: Trypsin coupled fluorescence-based inhibition assay, SIRT5. Particulars: for fold increased potency against SIRT5 in comparison with 11: more potent than hit 11.

Another experiment has as its target T2, human SIRT1 (Homo sapiens, UniProt Q96EB6).
T2 sequence (Q96EB6 1-747): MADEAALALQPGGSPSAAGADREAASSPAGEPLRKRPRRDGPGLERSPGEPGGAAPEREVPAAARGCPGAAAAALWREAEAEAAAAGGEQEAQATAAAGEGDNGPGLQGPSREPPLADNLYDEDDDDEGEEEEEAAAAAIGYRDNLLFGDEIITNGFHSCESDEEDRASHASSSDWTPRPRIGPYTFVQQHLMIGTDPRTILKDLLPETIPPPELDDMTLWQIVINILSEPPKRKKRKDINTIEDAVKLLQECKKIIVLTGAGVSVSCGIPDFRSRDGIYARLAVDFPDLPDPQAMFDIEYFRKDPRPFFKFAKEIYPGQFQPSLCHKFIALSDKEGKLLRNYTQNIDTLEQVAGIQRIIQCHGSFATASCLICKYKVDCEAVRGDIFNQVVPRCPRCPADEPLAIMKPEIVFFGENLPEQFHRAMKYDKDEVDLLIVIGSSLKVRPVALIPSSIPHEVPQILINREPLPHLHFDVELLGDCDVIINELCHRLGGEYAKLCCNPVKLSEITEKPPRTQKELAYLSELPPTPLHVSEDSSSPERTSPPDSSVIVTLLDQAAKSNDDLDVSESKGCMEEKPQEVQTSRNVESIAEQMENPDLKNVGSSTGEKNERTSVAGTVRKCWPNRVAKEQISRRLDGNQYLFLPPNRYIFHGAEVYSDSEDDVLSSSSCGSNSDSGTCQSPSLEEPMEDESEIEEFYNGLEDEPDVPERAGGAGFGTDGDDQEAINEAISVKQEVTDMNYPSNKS
Kind of experiment: Fluorescence-based inhibition assay, SIRT1. Particulars: at the highest concentration of 400 μM.

Another experiment has as its target T3, human SIRT2 (Homo sapiens, UniProt Q8IXJ6).
T3 sequence (Q8IXJ6 1-389): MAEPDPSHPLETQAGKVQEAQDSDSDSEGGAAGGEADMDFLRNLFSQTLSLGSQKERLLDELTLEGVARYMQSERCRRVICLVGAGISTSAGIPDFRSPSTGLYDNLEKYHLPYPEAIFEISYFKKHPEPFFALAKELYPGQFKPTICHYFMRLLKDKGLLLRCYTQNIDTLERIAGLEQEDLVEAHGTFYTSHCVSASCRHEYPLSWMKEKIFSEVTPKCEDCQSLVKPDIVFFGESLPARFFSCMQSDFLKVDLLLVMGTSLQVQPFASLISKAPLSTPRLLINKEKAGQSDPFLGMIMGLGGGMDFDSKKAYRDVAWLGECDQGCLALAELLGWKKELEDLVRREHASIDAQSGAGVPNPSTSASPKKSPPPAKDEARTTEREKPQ
Put plainly: Fluorescence-based inhibition assay, SIRT2. Particulars: at the highest concentration of 400 μM.

In a further experiment the target is T4, human SIRT3 (Homo sapiens, UniProt Q9NTG7).
T4 sequence (Q9NTG7 1-399): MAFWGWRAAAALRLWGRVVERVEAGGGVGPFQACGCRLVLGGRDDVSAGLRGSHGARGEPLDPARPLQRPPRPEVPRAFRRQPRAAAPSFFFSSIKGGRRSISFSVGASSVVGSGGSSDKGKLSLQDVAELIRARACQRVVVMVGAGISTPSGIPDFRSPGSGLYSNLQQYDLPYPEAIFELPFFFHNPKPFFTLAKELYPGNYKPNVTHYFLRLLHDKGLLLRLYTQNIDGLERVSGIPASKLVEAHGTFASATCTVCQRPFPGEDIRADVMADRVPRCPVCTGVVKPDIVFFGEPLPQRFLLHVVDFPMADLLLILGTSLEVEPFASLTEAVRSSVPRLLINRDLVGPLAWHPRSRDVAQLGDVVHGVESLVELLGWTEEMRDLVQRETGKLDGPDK
Kind of experiment: Fluorescence-based inhibition assay, SIRT3. As to conditions: at the highest concentration of 400 μM.

Consider `O=C(O)c1ccc(NC(=S)Nc2nc(-c3ccc([N+](=O)[O-])cc3)cs2)cc1O` [Compound 30, 2-hydroxy-4-(3-(4-(4-nitrophenyl)thiazol-2-yl)thioureido)benzoic acid], for which the “fold increased potency against SIRT5 in comparison with 11” value (from here on “fold increased potency against SIRT5”) at human SIRT5 was determined as 6 fold.
Turning to `O=C(O)c1ccc(NC(=S)Nc2nc(-c3ccc([N+](=O)[O-])c(S(=O)(=O)NCc4ccccc4)c3)cs2)cc1O` [Compound 43, 4-(3-(4-(3-(N-benzylsulfamoyl)-4-nitrophenyl)thiazol-2-yl)thioureido)-2-hydroxybenzoic acid], the “fold increased potency against SIRT5” value on human SIRT5 amounted to 10 fold. The “inhibition against SIRT1” value against human SIRT1 is on record as “no inhibition”. The “inhibition against SIRT2” value on human SIRT2 is listed as “no inhibition”. In addition, the “inhibition against SIRT3” value against human SIRT3 is “no inhibition”.
As to `CC(=O)Nc1ccc(-c2csc(Nc3ccc(C(=O)O)c(O)c3)n2)cc1` [Compound 11, 4-((4-(4-acetamidophenyl)thiazol-2-yl)amino)-2-hydroxybenzoic acid], on human SIRT1, the “inhibition against SIRT1” value is “no inhibitions”. The “inhibition against SIRT2” value against human SIRT2 is recorded as “no inhibitions”. Also, the “inhibition against SIRT3” value against human SIRT3 was “no inhibitions”.
With `CC(=O)Nc1ccc(-c2csc(NC(=S)Nc3ccc(C(=O)O)c(O)c3)n2)cc1` [Compound 14, 4-(3-(4-(4-acetamidophenyl)thiazol-2-yl)thioureido)-2-hydroxybenzoic acid], at human SIRT5, the “fold increased potency against SIRT5” value was determined as 2 fold. In addition, on human SIRT1, the “inhibition against SIRT1” value was “no inhibition”. For the same compound, the “inhibition against SIRT2” value against human SIRT2 is on record as “no inhibition”. For the same compound, the “inhibition against SIRT3” value on human SIRT3 is “no inhibition”.
For `CC(=O)Nc1ccc(-c2csc(Nc3ccc(C(=O)O)cc3)n2)cc1` [Compound 13, 4-((4-(4-acetamidophenyl)thiazol-2-yl)amino)benzoic acid], at human SIRT5 (less potent than hit 11), the “fold less potent than 11 against SIRT5” value is “about 8 fold”.
